# Measurements published in ChEMBL document CHEMBL1135267 (Bioorg Med Chem Lett, 2002).
# Biological target: T1, Aromatase (Homo sapiens, UniProt P11511)
# T1 sequence (P11511 whole entry): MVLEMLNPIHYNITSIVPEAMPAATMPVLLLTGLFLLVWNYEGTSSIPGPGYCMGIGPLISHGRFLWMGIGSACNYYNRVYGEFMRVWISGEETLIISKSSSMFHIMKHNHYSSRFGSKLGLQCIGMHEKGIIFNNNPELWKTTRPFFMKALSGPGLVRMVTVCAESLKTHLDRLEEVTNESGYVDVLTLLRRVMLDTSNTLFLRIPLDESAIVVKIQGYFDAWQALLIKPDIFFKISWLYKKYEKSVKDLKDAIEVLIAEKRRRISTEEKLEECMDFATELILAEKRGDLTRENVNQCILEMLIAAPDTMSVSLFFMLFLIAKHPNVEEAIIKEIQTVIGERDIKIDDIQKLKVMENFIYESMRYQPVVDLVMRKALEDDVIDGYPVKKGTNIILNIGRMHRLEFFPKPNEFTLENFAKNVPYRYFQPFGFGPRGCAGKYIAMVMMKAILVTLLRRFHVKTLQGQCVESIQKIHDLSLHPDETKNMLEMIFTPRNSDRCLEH
row,IC50,SMILES
1,800 nM,O=C1/C(=C/c2ccncc2)C(c2ccccc2)Oc2ccccc21 (centres undefined)
2,620 nM,COc1ccc2c(c1)OC(c1ccccc1)/C(=C\c1ccncc1)C2=O (centres undefined)
3,3300 nM,O=C1/C(=C\c2ccncc2)C(c2ccccc2)Oc2ccccc21 (mixture of isomers)
4,1600 nM,COc1ccc2c(c1)OC(c1ccccc1)/C(=C/c1ccncc1)C2=O (mixture of isomers)
